Experiment: method code SF, from DOI: 10.2478/s11696-010-0084-9

Q: With `O=C(NCc1ccccc1)c1cc(Br)cc(Br)c1O` as the compound, how does the logP read?
A: The logP was 4.18.

Q: Which logP does the source give for `Cc1cccc(C(=O)NCc2ccccn2)c1O` here?
A: Its logP is 2.09.

Q: For `COc1cccc(C(=O)NCc2cccnc2)c1O`, which logP is on record?
A: The logP was 1.06.

Q: For `O=C(NCc1ccccc1)c1ccccc1O`, which logP is on record?
A: The logP was 2.52.

Q: With `O=C(NCc1cccnc1)c1cc(Br)ccc1O` as the compound, how does the logP read?
A: The logP was 2.01.

Q: With `O=C(NCc1cccnc1)c1ccccc1O` as the compound, how does the logP read?
A: Its logP is 1.18.

Q: With `O=C(NCc1ccccc1)c1cc(Cl)ccc1O` as the compound, how does the logP read?
A: The logP was 3.08.

Q: With `O=C(NCc1cccnc1)c1cc(Cl)ccc1O` as the compound, how does the logP read?
A: The logP was 1.74.

Q: For `Cc1ccc(C(=O)NCc2cccnc2)c(O)c1`, which logP is on record?
A: The logP was 1.67.

Q: Which logP does the source give for `O=C(NCc1ccccc1)c1ccc(Cl)cc1O` here?
A: The logP was 3.08.

Q: Which logP does the source give for `O=C(NCc1ccccn1)c1cc(Cl)ccc1O` here?
A: Its logP is 2.16.

Q: With `O=C(NCc1ccccn1)c1cc(Br)cc(Br)c1O` as the compound, how does the logP read?
A: The logP was 3.26.

Q: Which logP does the source give for `COc1ccc(C(=O)NCc2cccnc2)c(O)c1` here?
A: The logP was 1.06.

Q: Which logP does the source give for `Cc1cccc(C(=O)NCc2cccnc2)c1O` here?
A: The logP was 1.67.

Q: For `COc1cccc(C(=O)NCc2ccccn2)c1O`, which logP is on record?
A: Its logP is 1.48.

Q: Which logP does the source give for `O=C(NCc1ccccn1)c1cc(F)ccc1O` here?
A: Its logP is 1.76.

Q: For `O=C(NCc1ccccn1)c1ccc(Cl)cc1O`, which logP is on record?
A: Its logP is 2.16.

Q: Which logP does the source give for `O=C(NCc1ccccc1)c1cc(Cl)cc(Cl)c1O` here?
A: Its logP is 3.64.

Q: With `O=C(NCc1cccnc1)c1cc(Br)cc(Br)c1O` as the compound, how does the logP read?
A: The logP was 2.84.

Q: For `O=C(NCc1cccnc1)c1cc(Cl)cc(Cl)c1O`, which logP is on record?
A: Its logP is 2.3.

Q: Which logP does the source give for `Cc1ccc(C(=O)NCc2ccccn2)c(O)c1` here?
A: The logP was 2.09.

Q: Which logP does the source give for `O=C(NCc1ccccc1)c1cc(Br)ccc1O` here?
A: Its logP is 3.53.

Q: Which logP does the source give for `O=C(NCc1cccnc1)c1ccc(Cl)cc1O` here?
A: The logP was 1.74.

Q: With `O=C(NCc1ccccn1)c1cc(Br)ccc1O` as the compound, how does the logP read?
A: The logP was 2.43.

Q: For `O=C(NCc1cccnc1)c1cc(F)ccc1O`, which logP is on record?
A: Its logP is 1.34.

Q: Which logP does the source give for `COc1cccc(C(=O)NCc2ccccc2)c1O` here?
A: The logP was 2.39.

From the SangsterLogP compilation
